Assay [1] has as its system NCI 60 cell line assay (leukemia, non-small cell lung cancer, colon cancer, CNS cancer, melanoma, ovarian cancer, renal cancer, prostate cancer, and breast …). Description: NCI 60 cell line assay, cell proliferation inhibition. In kind it is cell-based, human. The following applies: for anti-proliferative activity compared with largazole: 5 μM concentration; for inhibition of cell survival compared with largazole: at 5 μM; for inhibitory activity compared with largazole: at lower concentrations (below 5 μM). How it is done: Understanding how these compounds affect cellular HDAC activity is important. Therefore, the biological effects of all these analogues were evaluated. As described in the examples, the analogues JA1-JA6, AA1-AA2, and RF1 were tested in the NCI 60 cell line assay, which includes leukemia, non-small cell lung cancer, colon cancer, CNS cancer, melanoma, ovarian cancer, renal cancer, prostate cancer, and breast cancer cell lines. […] The analogues were tested in the NCI 60 cell line assay using standard assay protocol. The NCI 60 cell line assay includes leukemia, non-small cell lung cancer, colon cancer, CNS cancer, melanoma, ovarian cancer, renal cancer, prostate cancer, and breast cancer cell lines. Results of the cell proliferation inhibition studies at a single dose of 10 μM are shown in FIGS. 16-21, and FIGS. 26-27, and results of the dose response studies for JA1, JA2, and J3 are shown in FIGS. 22-24. FIGS. 26-27 show the results of single dose response evaluations of AA1 and AA2, respectively, in the NCI 60 cell line assay.

Assay [2] concerns LNCaP. The following applies: cited from earlier work.
Assay [3] has as its system HDAC isoforms. The following applies: cited from earlier work.
For assay [4], the system named is PC-3. The following applies: cited from earlier work.

Data on 4 compounds can be found in US9469656B2, “HDAC inhibitors as anti-cancer agents” (The University of Toledo, priority 2014, dated 2016).

The structures appear in SMILES notation.

Turning to `CCCCCCCC(=O)SCC/C=C/[C@@H]1CC(=O)NCc2cccc(n2)CN(C)CC(=O)N[C@@H](C(C)C)C(=O)O1` [JA3], in assay [1], the “anti-proliferative activity compared with largazole” value is on record as “equivalent to largazole”, the “inhibition of cell survival compared with largazole” value is “nearly as effectively as largazole” and the “inhibitory activity compared with largazole” value is “less inhibitory activity”.

Regarding `CCCCCCCC(=O)SCC/C=C/[C@@H]1CC(=O)NCc2cccc(n2)-c2cccc(n2)C(=O)N[C@@H](C(C)C)C(=O)O1` [JA2], in assay [1], the “potency rank among the analogues” value is recorded as “most potent analogue”. In addition, the “anti-proliferative activity compared to largazole” value in assay [1] (at concentrations greater than 0.1 μM) is “higher anti-proliferative activity compared to largazole”.

As to `CCCCCCCC(=O)SCCC=CC1CC(=O)NCc2nc(cs2)C2=NC(C)(CS2)C(=O)NC(C(C)C)C(=O)O1` (centres unmarked) [C-2 epimer of largazole], the “inhibition of viability compared with largazole” value in assay [2] and in assay [4] was “more potent than largazole” in each case. In assay [3], the “inhibitory potency against HDAC isoforms” value is given as “sub-micromolar”.

Consider `CCCCCCCC(=O)SCC/C=C/[C@@H]1CC(=O)NCCOCCOCC(=O)N[C@@H](C(C)C)C(=O)O1` [JA1], for which, in assay [1], the “anti-proliferative activity compared with largazole” value is “equivalent to largazole”, the “inhibition of cell survival compared with largazole” value was “nearly as effectively as largazole” and the “inhibitory activity compared with largazole” value is “less inhibitory activity”.
